# Active and inactive are the calls of the source. No cut-off for these calls is given here.
# Key:
# [1] = Metabolic stability in human liver microsomes assessed as intrinsic clearance in presence of NADPH incubated up to 60 mins by LC-MS/MS analysis; format: ADME, Microsome; details: read-out: CLH
# [2] = Acute toxicity in ICR mouse assessed as appearance of lesions in liver at 5000 to 10000 mg/kg,po and measured after 14 days by H and E staining based microscopic analysis; format: organism-based; details: in vivo, 336 h, dose 5000-10000 mg/kg, time 14 day
# DU-145 [3] = assay: Induction of cell cycle arrest in human DU-145 cells assessed as accumulation of cells at S phase at 4 uM incubated for 24 hrs by propidium iodide based flow cytometric analysis (Rvb= 29.02%); format: functional
# CWR22R [4] = assay: Induction of cell cycle arrest in human 22Rv1 cells assessed as accumulation of cells at S phase at 4 uM incubated for 24 hrs by propidium iodide based flow cytometric analysis (Rvb=20.51 %); format: functional
# DU-145 [5] = assay: Induction of cell cycle arrest in human DU-145 cells assessed as accumulation of cells at G1 phase at 1 uM incubated for 24 hrs by propidium iodide based flow cytometric analysis (Rvb= 53.46%); format: functional
# [6] = Acute toxicity in ICR mouse assessed as change in kidney weight at 1000 to 10000 mg/kg,po and measured after 14 days; format: organism-based; details: in vivo, 336 h, dose 1000-10000 mg/kg, time 14 day
# DU-145 [7] = assay: Induction of cell cycle arrest in human DU-145 cells assessed as accumulation of cells at G1 phase at 2 uM incubated for 24 hrs by propidium iodide based flow cytometric analysis (Rvb= 53.46%); format: functional
# [8] = target: T1, Dual specificity tyrosine-phosphorylation-regulated kinase 2 (Homo sapiens) (UniProt Q92630); assay: Inhibition of DYRK2 in human DU-145 cells assessed as reduction in 4E-BP1 phosphorylation at 2 to 8 uM incubated for 24 hrs by Western blot analysis; format: cell-based; details: dose 2-8 µM
# T1 sequence (whole entry): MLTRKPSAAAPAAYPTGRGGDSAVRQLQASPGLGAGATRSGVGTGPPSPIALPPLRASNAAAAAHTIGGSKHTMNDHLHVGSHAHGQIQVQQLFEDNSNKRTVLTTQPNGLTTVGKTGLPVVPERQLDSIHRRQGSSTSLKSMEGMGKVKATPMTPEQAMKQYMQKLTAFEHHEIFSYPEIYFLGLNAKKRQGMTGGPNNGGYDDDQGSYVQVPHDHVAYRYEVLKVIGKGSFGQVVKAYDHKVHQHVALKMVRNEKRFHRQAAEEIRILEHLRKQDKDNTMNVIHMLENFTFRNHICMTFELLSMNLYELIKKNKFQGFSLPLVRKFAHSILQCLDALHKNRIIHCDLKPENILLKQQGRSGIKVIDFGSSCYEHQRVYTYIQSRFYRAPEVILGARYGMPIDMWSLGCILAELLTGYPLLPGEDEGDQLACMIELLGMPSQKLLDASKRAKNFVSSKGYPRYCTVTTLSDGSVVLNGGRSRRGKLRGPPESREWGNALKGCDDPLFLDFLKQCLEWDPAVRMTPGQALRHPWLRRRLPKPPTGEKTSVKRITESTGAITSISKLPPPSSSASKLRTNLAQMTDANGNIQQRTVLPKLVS
# [9] = Acute toxicity in ICR mouse assessed as appearance of lesions in spleen at 5000 to 10000 mg/kg,po and measured after 14 days by H and E staining based microscopic analysis; format: organism-based; details: in vivo, 336 h, dose 5000-10000 mg/kg, time 14 day
# DU-145 [10] = assay: Antiproliferative activity against human DU-145 cells assessed as cell growth inhibition at 2 to 8 uM incubated for 5 days by microplate reader analysis; format: functional, cell-based; details: dose 2-8 µM, time 5.0 day
# CWR22R [11] = assay: Induction of apoptosis in human 22Rv1 cells assessed as increase in cleaved PARP level at 2 to 8 uM incubated for 24 hrs by Western blot analysis; format: functional, cell-based; details: dose 2-8 µM
# DU-145 [12] = assay: Antitumor activity against human DU-145 xenografted in BALB/c nude mouse as downregulation of c-MYC level in tumor at 100 to 200 mg/kg,po administrated once daily for 21 days by Western blot analysis; format: functional, organism-based; details: dose 100-200 mg/kg, time 21.0 day
# [13] = Acute toxicity in ICR mouse assessed as change in liver weight at 1000 to 10000 mg/kg,po and measured after 14 days; format: organism-based; details: in vivo, 336 h, dose 1000-10000 mg/kg, time 14 day
# CWR22R [14] = assay: Induction of cell cycle arrest in human 22Rv1 cells assessed as accumulation of cells at G1 phase at 4 uM incubated for 24 hrs by propidium iodide based flow cytometric analysis (Rvb= 55.28%); format: functional
# CWR22R [15] = assay: Induction of cell cycle arrest in human 22Rv1 cells assessed as accumulation of cells at G1 phase at 1 uM incubated for 24 hrs by propidium iodide based flow cytometric analysis (Rvb= 55.28%); format: functional
# DU-145 [16] = assay: Antitumor activity against human DU-145 xenografted in BALB/c nude mouse as upregulation of p53 level in tumor at 100 to 200 mg/kg,po administrated once daily for 21 days by Western blot analysis; format: functional, organism-based; details: dose 100-200 mg/kg, time 21.0 day
# DU-145 [17] = assay: Antitumor activity against human DU-145 xenografted in BALB/c nude mouse assessed as tumor growth inhibition at 100 mg/kg,po qd for 21 days; format: functional, organism-based; details: time 21.0 day
# CWR22R [18] = assay: Antimigratory activity against human 22Rv1 cells assessed as upregulation of E-cadherin expression level at 2 to 8 uM incubated for 24 hrs by Western blot analysis; format: functional, cell-based; details: dose 2-8 µM
# DU-145 [19] = assay: Antitumor activity against human DU-145 xenografted in BALB/c nude mouse as upregulation of p27 level in tumor at 100 to 200 mg/kg,po administrated once daily for 21 days by Western blot analysis; format: functional, organism-based; details: dose 100-200 mg/kg, time 21.0 day
# DU-145 [20] = assay: Antitumor activity against human DU-145 xenografted in BALB/c nude mouse as inhibition of tumor cell proliferation at 100 to 200 mg/kg,po administrated once daily for 21 days by Ki67 staining based microscopic analysis; format: functional, organism-based; details: dose 100-200 mg/kg, time 21.0 day
# CWR22R [21] = assay: Induction of cell cycle arrest in human 22Rv1 cells assessed as accumulation of cells at G2 phase at 4 uM incubated for 24 hrs by propidium iodide based flow cytometric analysis (Rvb=24.21 %); format: functional
# CWR22R [22] = assay: Induction of apoptosis in human 22Rv1 cells assessed as apoptotis rate at 4 uM incubated for 24 hrs by Annexin V-FITC and PI staining based flow cytometry (Rvb= 3.08%); format: functional
# CWR22R [23] = assay: Induction of apoptosis in human 22Rv1 cells assessed as increase in p53 level at 2 to 8 uM incubated for 24 hrs by Western blot analysis; format: functional, cell-based; details: dose 2-8 µM
# DU-145 [24] = assay: Induction of cell cycle arrest in human DU-145 cells assessed as accumulation of cells at G2 phase at 4 uM incubated for 24 hrs by propidium iodide based flow cytometric analysis (Rvb= 17.52%); format: functional
# CWR22R [25] = assay: Induction of apoptosis in human 22Rv1 cells assessed as apoptotis rate at 8 uM incubated for 24 hrs by Annexin V-FITC and PI staining based flow cytometry (Rvb= 3.08%); format: functional
# [26] = Cytotoxicity against human RWPE-1 cells assessed as inhibition of cell proliferation incubated for 3 days by CCK-8 assay; format: toxicity, cell-based
# CWR22R [27] = assay: Antiproliferative activity against human 22Rv1 cells assessed as inhibition of cell proliferation incubated for 3 days by CCK-8 assay; format: functional, cell-based; details: 22Rv1, 72 h
smiles,measurement,setting,value
Cl.O=C(c1ccc(Nc2ncc(F)c(-c3ccc4scnc4c3)n2)nc1)N1CCNCC1,CLint scaled,[1],16 mL/min/kg
same,Activity,[2],Non-Toxic
same,Activity,DU-145 [3],19.37%
same,Activity,CWR22R [4],13.85%
same,Activity,DU-145 [5],54.77%
same,Activity,[6],Non-Toxic
same,Activity,DU-145 [7],61.07%
same,inhibition,[8],Active
same,Activity,[9],Non-Toxic
same,Activity,DU-145 [10],Active
same,Activity,CWR22R [11],Active
same,Activity,DU-145 [12],Active
same,Activity,[13],Non-Toxic
same,Activity,CWR22R [14],66.73%
same,Activity,CWR22R [15],60.51%
same,Activity,DU-145 [16],Active
same,Activity,DU-145 [17],Active
same,Activity,CWR22R [18],Active
same,Activity,DU-145 [19],Active
same,Activity,DU-145 [20],Active
same,Activity,CWR22R [21],19.42%
same,Activity,CWR22R [22],21.78%
same,Activity,CWR22R [23],Active
same,Activity,DU-145 [24],12.12%
same,Activity,CWR22R [25],24.04%
same,IC50 at 3 days,[26],25 µM
same,IC50,CWR22R [27],2.56 µM
